Test results: BindingDB's records for doi:10.1021/np070341r (Leibniz-Institute For Natural Product Research and …, 2008)

Target: Dual specificity tyrosine-phosphorylation-regulated kinase 1A (Homo sapiens, UniProt Q13627)
Assay: Inhibition of human recombinant DYRK1A

Row | SMILES | IC50
1 | COC(=O)[C@@]1(Cc2ccc(O)c(CC=C(C)C)c2)OC(=O)C(=O)C1c1ccc(O)cc1 (stereo partly drawn) [(S)-methyl 4-hydroxy-2-(4-hydroxy-3-(3-methylbut-2-enyl)benzyl)-3-(4-hydroxyphenyl)-5-oxo-2,5-dihydrofuran-2-carboxylate] | > 100 µM
2 | COC(=O)[C@]1(Cc2ccc(OS(=O)(=O)O)c(CC=C(C)C)c2)OC(=O)C(=O)C1c1ccc(O)cc1 (some centres not stated) [butyrolactone I 4''-sulfate] | > 100 µM
